Assay results as given in patent publication US20240293337A1, “USE OF DOXERCALCIFEROL TO TREAT AND/OR PREVENT UTERINE FIBROIDS OR POLYCYSTIC OVARY SYNDROME” (priority 2023, published 2024).

Legend:
[1] = system: patient derived xenograft (PDX) mouse model of uterine fibroids (UF); assay: Tumor growth in patient derived xenograft (PDX) mouse model of uterine fibroids; format: in vivo, NOD/SCID mice; conditions: PDX UF mice, 300 ng/kg i.p. 3 times per week, 6 weeks
Method: Female NOD/SCID are housed in a vivarium for 1 week under specific pathogen-free conditions. The animal experiment protocol for this study is approved, and all animal experiments are performed in compliance with policies and guidelines for use of laboratory animals. UF samples are obtained from African-American female patients with UF (n=4). This human UF tissue is xenografted into female mice that have been hormonally supplemented with progesterone and estradiol (n=2 mice/patient). Tumor size is measured at implantation. After xenograft mice undergo intraperitoneal injection of doxercalciferol (300 ng/kg, 3 times per week) or saline for 6 weeks. Body weight is monitored weekly during doxercalciferol treatment. Six weeks after doxercalciferol treatment insulin resistance is assessed using GTT and then mice are anesthetized and blood is collected to measure liver enzyme and AMH levels, ovary tissue is removed for histological analysis, total RNA is extracted for sequencing, and tumor size is measured with a digital caliper.

SW872 cells = assay: SW872 immortalized adipocyte model, cell morphology and cell number after 24 h treatment; format: cell-based, human; conditions: 100 nM
Method: Human liposarcoma SW872 are used as an in vitro cell culture model of adipocytes to assess adipocyte proliferation. SW872 cells are purchased from (ATCC). These cells are isolated from a surgical specimen of a […] removed from a donor. The cells are cultured per the recommended guidelines. The cells are subcultured at a ratio of 1:4, resulting in a cell density of approximately 1×10^6 in T75 flasks. SW872 cells are subcultured in T75 flasks for 24 hours. Cells are then treated for 24 hours with serum free basal media as a control or doxercalciferol at 1 nM, 10 nM, or 100 nM diluted in basal media (serum-free). After the incubation period, cells are imaged and analyzed for morphology and cell count. Cells are then collected for analysis of adipogenesis-related gene expression and cell culture media are collected for analysis of obesity related cytokines.

ovary = assay: Ovarian follicle counts in PDX UF mice (H&E histology); format: in vivo, NOD/SCID mice; conditions: vs untreated control
Method: (§1) After xenograft mice undergo intraperitoneal injection of doxercalciferol (300 ng/kg, 3 times per week) or saline for 6 weeks. Body weight is monitored weekly during doxercalciferol treatment. Six weeks after doxercalciferol treatment insulin resistance is assessed using GTT and then mice are anesthetized and blood is collected to measure liver enzyme and AMH levels, ovary tissue is removed for histological analysis, total RNA is extracted for sequencing, and tumor size is measured with a digital caliper.
Ovary tissue is collected and fixed in 4% paraformaldehyde. Tissue sections are stained with hematoxylin-eosin (H&E). Histological analyses are performed.

[2] = Body weight change in PDX UF mice; format: in vivo, NOD/SCID mice; conditions: 300 ng/kg i.p. 3 times per week, 6 weeks
Method: as §1

[3] = system: patient derived xenograft (PDX) mouse model of uterine fibroids (UF); assay: Differentially expressed gene (DEG) analysis by RNA sequencing in PDX UFs; format: in vivo, NOD/SCID mice; conditions: UFs treated with doxercalciferol compared to control
Method: as §1
Total RNA is extracted from PDX mice after doxercalciferol treatment. EdgeR is used to identify DEGs with p-values of (p)<0.01). GO and KEGG enrichment analysis are performed to determine the implication of the DEGs at the biologically functional level.

[4] = Serum chemistry in PCOS mice; format: in vivo, C57BL/6 mice; conditions: after five weeks of treatment, most of the serum levels
[5] = system: Human MSC derived adipocytes; assay: MSC derived adipocyte differentiation, 14 days, morphology and oil red-O staining; format: cell-based; conditions: 100 nM
Method: Human mesenchymal stem cells (MSC) are used as an in vitro cell culture model of adipocyte precursors to assess adipocyte differentiation. MSC cells are purchased from (Lonza). The cells are cultured in the DMEM/F12 media containing 10% FBS. At approximately 80% confluence, the cells are trypsinized using TrypLE select enzyme (Gibco, MA) and are serially expanded. At the end of the culture expansion, MSCs are collected and centrifuged at 300×g for 5 minutes. Human MSCs are treated with doxercalciferol and are cultured in adipocyte induction medium for 14 days. Mesenchymal Adipogenesis Kit (Sigma) and manufacturer's induction protocol are used for adipocyte induction. Imaging and morphology analysis is performed on days 1, 7, 10, and 14. On day 14 when adipocyte differentiation is completed, the cells undergo oil red-O staining and are imaged for further morphology analysis.

H295R cells = assay: Androgen producing gene expression in H295R cells (qPCR); format: cell-based, human; conditions: 24 hours
Method: H295R cells are subcultured in T75 flasks for 24 hours. Cells are then treated for 24 hours with serum free basal media as a control or doxercalciferol at 1 nM, 10 nM, or 100 nM diluted in basal media (serum-free) at a 1:1 ratio. After the incubation period, cells are imaged and analyzed for morphology and cell count. Cells are then collected for analysis of steroidogenesis-related gene expression. Cell culture media are collected and used for testosterone quantification using ELISA based Testosterone Parameter Assay Kit (R&D system) per the manufacturer's protocol. The testosterone level is quantified using a multimode microplate reader system, Varioskan LUX Multimode Microplate Reader (Thermo Fisher).
RNA is extracted from H295R cells treated with doxercalciferol. RNA extraction is done using TRIzol (Invitrogen, USA) according to the manufacturer's instructions. The concentration and purity of the extracted RNA are checked using a NanoDrop spectrometer (Thermo Scientific, MA, USA). For qPCR of steroidogenesis related genes in H295R cells 1 μg of total RNA is reverse transcribed using RNA to cDNA EcoDry™ Premix (Double Primed) (Takara Bio USA Inc., CA, USA). The reaction mixture is incubated for 1 hour at 42° C.; incubation is stopped at 70° C. for 10 min. qPCR is performed using the CFX96 PCR instrument and SYBR Green Supermix (Bio-Rad, Hercules, CA, USA) with specific primers (RT^2 Profiler PCR Array for Human Adipogenesis, PAHS-049ZA, QIAGEN) to the target genes in a 20 μL final reaction volume. The delta-delta threshold cycle (ΔΔCt) method is used to calculate the fold change expression in mRNA level in the samples.

For C=C1/C(=C\C=C2/CCC[C@]3(C)[C@@H]([C@H](C)/C=C/[C@H](C)C(C)C)CC[C@@H]23)C[C@@H](O)C[C@@H]1O [doxercalciferol], the “tumor growth (significant reduction, down to)” value [1] was 55.6%, the cell morphology (SW872 cells) was “most cells being dead” and the cell number (SW872 cells; vs control) was “significant reduction in cells”. For the same compound, the “number of follicles at the primordial, primary, secondary, or preantral phases” value (ovary) was “does not significantly affect”, the “total number of follicles in the ovary” value (ovary) was “does not significantly affect” and the “decrease in body weight” value [2] was 24%. For the same compound, the “ADRA1B fold change (FC)” value [3] was −1.81, the “ARGI fold change (FC)” value [3] was −1.42 and the “DUSP1 fold change [FC]” value [3] was 1.05. For the same compound, the “IL24 fold change (FC)” value [3] was 1.55, the “number of DEGs” value ([3]; RNA sequencing) was 410 and the “number of down-regulated DEGs” value ([3]; RNA sequencing) was 252. The “number of up-regulated DEGs” value ([3]; RNA sequencing) was 158, the “serum levels vs reference range of C57BL/6 mice” value [4] was “overlap with the reference range” and the “Oil red-O staining, presence of adipocytes” value ([5]; 1 nM, 10 nM, day 14) was “presence of adipocytes in all treatment groups except the 100 nM group”. For the same compound, the cell morphology ([5]; 14 days) was “most cells dead”, the CYP11A1 gene expression (H295R cells; 1 nM) was “not significantly changed” and the CYP17A1 gene expression (H295R cells; 1 nM) was “significantly increased”. For the same compound, the CYP11A1 gene expression (H295R cells; 10 nM) was “significantly increased”, the CYP17A1 gene expression (H295R cells; 10 nM) was “not significantly changed” and the CYP11A1 gene expression (H295R cells; 100 nM) was “significantly decreased”. The CYP17A1 gene expression (H295R cells; 100 nM) was “significantly decreased”.
